Assay results reported in patent US20230115208A1, “RING-FUSED THIAZOLINO 2-PYRIDONES, METHODS FOR PREPARATION THEREOF AND THEIR USE IN THE TREATMENT AND/OR PREVENTION OF TUBERCULOSIS” (QURETECH BIO AB, priority 2016, published 2023).
Where two headings read alike, the source gives them in different places.

Legend:
katGFSAA6 Mtb = assay: Lawn of katGFSAA6 Mtb plated on agar (FIG. 9c-9f); assay type: cell-based, Mycobacterium tuberculosis
[1] = test system: Mycobacterium tuberculosis Erdman; assay: Biofilm inhibition of Mycobacterium tuberculosis (ocular inspection); assay type: cell-based; conditions: for inhibition at 10 µM: read-out: Average % Inhibition at 10 μM; for inhibition at 25 µM: read-out: Average % Inhibition at 25 μM; for minimal effective concentration: concentration at which full biofilm inhibition took place, replicate determinations in one cell
[2] = test system: Erdman Wild-Type Mycobacterium tuberculosis; assay type: cell-based
[3] = test system: Mycobacterium tuberculosis; assay type: cell-based
Mtb = conditions: cited from earlier work
[4] = test system: Mycobacterium tuberculosis; assay type: cell-based; remark: listed apart in the source
[5] = biofilm inhibition, average of three or more measurements (100/50/0% scoring)
[6] = biofilm inhibition, 25 μM, average of three or more measurements (100/50/0% scoring)
[7] = biofilm inhibition, 10 μM, average of three or more measurements (100/50/0% scoring)

O=C(O)[C@@H]1CSc2c(C3CC3)c(Cc3cccc4ccccc34)cc(=O)n21 [Example 1, (3R)-7-Cyclopropyl-6-[(1-naphthyl)methyl]-4-oxo-1-thia-3a-aza-3-indancarboxylic acid]
growth of katGFSAA6 strain on agar (katGFSAA6 Mtb): able to grow | inhibition at 10 µM [1]: 100% | inhibition at 25 µM [1]: 100% | doubling time [2]: 52 h | fold less Mtb in the culture as compared to controls (CFU) [2]: 7.6 fold

NNC(=O)c1ccncc1 [INH, isonicotinylhydrazide, reference compound]
growth of katGFSAA6 strain on agar (katGFSAA6 Mtb; agar plates containing INH, Example 1 or combination): able to grow | tuberculosis bacteria detected (ratio of CFU treated/untreated) ([3]; […], Example 1 50 microM, Example 19 25 microM): tuberculosis bacteria remained | eradication of Mycobacterium tuberculosis (conclusion) ([3]; conclusions from FIG. 5 and FIG. 6 experiments): did not eradicate | Mtb growth as measured by ODλ600 [2]: completely inhibited | culturable bacteria remaining (CFU) [2]: several thousand | MIC (Mtb): 0.02 to 0.06 µg/mL

O=C(O)[C@@H]1[C@@H](c2ccccc2)Sc2c(C3CC3)c(Cc3cccc4ccccc34)cc(=O)n21 [Example 34, (2R,3R)-7-Cyclopropyl-6-[(1-naphthyl)methyl]-4-oxo-2-phenyl-1-thia-3a-aza-3-indancarboxylic acid]
inhibition at 50 µM [1, 5]: 25% | minimal effective concentration [1]: 30 µM

CC1(C)Sc2c(C3CC3)c(Cc3cccc4ccccc34)cc(=O)n2[C@@H]1C(=O)O [Example 46, (3R)-7-Cyclopropyl-2,2-dimethyl-6-[(1-naphthyl)methyl]-4-oxo-1-thia-3a-aza-3-indancarboxylic acid]
inhibition at 25 µM [1, 6]: 62% | inhibition at 50 µM [1, 5]: 38%

O=C(O)[C@@H]1CSc2c(C3CC3)c(COc3cccc4ccccc34)cc(=O)n21 [Example 7, (3R)-7-Cyclopropyl-6-[(1-naphthyloxy)methyl]-4-oxo-1-thia-3a-aza-3-indancarboxylic acid]
inhibition at 10 µM [1, 7]: 50% | inhibition at 25 µM [1, 6]: 100% | inhibition at 50 µM [1, 5]: 100% | minimal effective concentration [1]: 25 µM

O=C(O)[C@@H]1CSc2c(C(F)(F)F)c(Cc3cccc4ccccc34)cc(=O)n21 [Example 47, (3R)-6-[(1-Naphthyl)methyl]-4-oxo-7-(trifluoromethyl)-1-thia-3a-aza-3-indancarboxylic acid]
inhibition at 50 µM [1, 5]: 100% | minimal effective concentration [1]: > 50 µM

O=c1cc(Cc2cccc3ccccc23)c(C2CC2)c2n1CCS2 [Example 31, 7-Cyclopropyl-6-[(1-naphthyl)methyl]-1-thia-3a-aza-4-indanone]
inhibition at 50 µM [1, 5]: 100%

CC(C)COc1c(Cc2cccc3ccccc23)cc(=O)n2c1SC[C@H]2C(=O)O [Example 48, (3R)-7-Isobutoxy-6-[(1-naphthyl)methyl]-4-oxo-1-thia-3a-aza-3-indancarboxylic acid]
inhibition at 50 µM [1, 5]: 50%

CON(C)C(=O)[C@@H]1CSc2c(C3CC3)c(Cc3cccc4ccccc34)cc(=O)n21 [Example 11, (N-Methylmethoxyamino){(3R)-7-cyclopropyl-6-[(1-naphthyl)methyl]-4-oxo-1-thia-3a-aza-3-indanyl}formaldehyde]
inhibition at 10 µM [1, 7]: 75% | inhibition at 25 µM [1, 6]: 38% | inhibition at 50 µM [1, 5]: 88%

N[C@@H]1CSc2c(C3CC3)c(Cc3cccc4ccccc34)cc(=O)n21 [Example 33, (3S)-3-Amino-7-cyclopropyl-6-[(1-naphthyl)methyl]-1-thia-3a-aza-4-indanone]
minimal effective concentration [1]: 25 µM

O=C(NS(=O)(=O)c1ccccc1)[C@@H]1CSc2c(C3CC3)c(Cc3cccc4ccccc34)cc(=O)n21 [Example 22, {(3R)-7-Cyclopropyl-6-[(1-naphthyl)methyl]-4-oxo-1-thia-3a-aza-3-indanyl}(phenylsulfonylamino)formaldehyde]
inhibition at 25 µM [1, 6]: 38% | inhibition at 50 µM [1, 5]: 25%

O=C(O)[C@@H]1CSc2c(C3CC3)c(Cc3ccc(Cl)cc3)cc(=O)n21 [Example 25, (3R)-6-[(p-Chlorophenyl)methyl]-7-cyclopropyl-4-oxo-1-thia-3a-aza-3-indancarboxylic acid]
inhibition at 25 µM [1, 6]: 12% | inhibition at 50 µM [1, 5]: 50%

O=C(O)[C@@H]1CSc2c(C3CC3)c(Cc3cccc4ccccc34)c(Br)c(=O)n21 [Example 41, (3R)-5-Bromo-7-cyclopropyl-6-[(1-naphthyl)methyl]-4-oxo-1-thia-3a-aza-3-indancarboxylic acid]
inhibition at 10 µM [1, 7]: 25% | inhibition at 25 µM [1, 6]: 62% | inhibition at 50 µM [1, 5]: 88% | inhibition at 100 µM ([1]; biofilm inhibition, 100 μM, average of three or more measurements (100/50/0% scoring)): 100%

O=C(O)[C@@H]1CSc2c(-c3cccs3)c(Cc3cccc4ccccc34)cc(=O)n21 [Example 17, (3R)-6-[(1-Naphthyl)methyl]-4-oxo-7-(2-thienyl)-1-thia-3a-aza-3-indancarboxylic acid]
inhibition at 10 µM [1, 7]: 25% | inhibition at 25 µM [1, 6]: 38% | inhibition at 50 µM [1, 5]: 100% | minimal effective concentration [1]: 50 µM

O=C(O)[C@@H]1CSc2c(OCC3CC3)c(Cc3cccc4ccccc34)cc(=O)n21 [Example 50, (3R)-7-(Cyclopropylmethoxy)-6-[(1-naphthyl)methyl]-4-oxo-1-thia-3a-aza-3-indancarboxylic acid]
inhibition at 50 µM [1, 5]: 25%

O=C(O)[C@@H]1CSc2c(C3CC3)c(Cc3ccc(Br)c4ccccc34)cc(=O)n21 [Example 30, (3R)-6-[(4-Bromo-1-naphthyl)methyl]-7-cyclopropyl-4-oxo-1-thia-3a-aza-3-indancarboxylic acid]
minimal effective concentration [1]: 50 µM

CCC(CO)NCCNC(CC)COC(=O)C1CSc2c(C3CC3)c(Cc3cccc4ccccc34)cc(=O)n21 (centres unmarked) [Example 37, 2-{2-[1-(Hydroxymethyl)propylamino]ethylamino}butyl 7-cyclopropyl-6-[(1-naphthyl)methyl]-4-oxo-1-thia-3a-aza-3-indancarboxylate]
inhibition at 10 µM [1, 7]: 100% | inhibition at 25 µM [1, 6]: 100% | inhibition at 50 µM [1, 5]: 100%

O=C(O)c1c(-c2c[nH]nn2)sc2c(C3CC3)c(Cc3cccc4ccccc34)cc(=O)n12 [Example 18, 5-Cyclopropyl-4-[(1-naphthyl)methyl]-2-oxo-8-(1H-1,2,3-triazol-4-yl)-7-thia-1-azabicyclo[4.3.0]nona-3,5,8-triene-9-carboxylic acid]
inhibition at 10 µM [1, 7]: 12% | inhibition at 25 µM [1, 6]: 12% | inhibition at 50 µM [1, 5]: 38%

CN(C)c1c(Cc2cccc3ccccc23)cc(=O)n2c1SC[C@H]2C(=O)O [Example 40, (3R)-7-(Dimethylamino)-6-[(1-naphthyl)methyl]-4-oxo-1-thia-3a-aza-3-indancarboxylic acid]
inhibition at 10 µM [1, 7]: 50% | inhibition at 25 µM [1, 6]: 100% | inhibition at 50 µM [1, 5]: 50%

O=C(O)[C@@H]1CSc2c(C3CC3)c(Cc3cccc4ccccc34)c(CO)c(=O)n21 [Example 32, (3R)-7-Cyclopropyl-5-(hydroxymethyl)-6-[(1-naphthyl)methyl]-4-oxo-1-thia-3a-aza-3-indancarboxylic acid]
minimal effective concentration [1]: 50 µM

O=C(O)[C@@H]1CSc2c(C3CC3)c(Cc3cccc4ccccc34)cc(=O)n21 [(3R)-7-Cyclopropyl-6-[(1-naphthyl)methyl]-4-oxo-1-thia-3a-aza-3-indancarboxylic acid]
eradication of Mycobacterium tuberculosis (conclusion) [4]: did not eradicate

COc1ccc2ccccc2c1Cc1cc(=O)n2c(c1C1CC1)SC[C@H]2C(=O)O [Example 49, (3R)-7-Cyclopropyl-6-[(2-methoxy-1-naphthyl)methyl]-4-oxo-1-thia-3a-aza-3-indancarboxylic acid]
minimal effective concentration [1]: 25 µM

Cn1cc(-c2c(COc3cccc4ccccc34)cc(=O)n3c2SCC3C(=O)O)c2ccccc21 (centres unmarked) [Example 29, 7-(1-Methyl-1H-indol-3-yl)-6-[(1-naphthyloxy)methyl]-4-oxo-1-thia-3a-aza-3-indancarboxylic acid]
minimal effective concentration [1]: 50 µM

Cc1cc(=O)n2c(c1C1CC1)SC[C@H]2C(=O)O [Example 24, (3R)-7-Cyclopropyl-6-methyl-4-oxo-1-thia-3a-aza-3-indancarboxylic acid]
inhibition at 25 µM [1, 6]: 12% | inhibition at 50 µM [1, 5]: 62%
